The values that follow come from patent US6897200B1, “Oligonucleotide delivery systems for camptothecins” (University of Kentucky Research Foundation, priority 1998, dated 2005).

Each structure is given as a SMILES string.

Data set [1] relates to double-stranded DNA (dsDNA). Description: Fluorescence emission spectra of SN-38 lactone with DNA. It is filed as binding. Conditions: SN-38 lactone 1 μM, spectra within 2 min. How it is done:
FIG. 8 depicts the marked shifting of the fluorescence emission spectra of SN-38 lactone (1 μM final concentration) in the presence of double-stranded DNA (dsDNA). SN38 contains a 10-hydroxy-nctionality which results in the molecule having a fluorescence emission which is highly sensitive to the presence of water in the surrounding microenvironment. […] Note how the agent fluoresces in the 410 nm to 460 nm region when water is not present, but fluoresces at 520 to 530 nm when water is present. […] The fluorophore was directly added to the DNA solution and the spectra recorded immediately (within 2 min.) prior to any significant conversion of the agent to carboxylate form.
To gain mechanistic insight into why the stabilization occurs, fluorescence spectroscopic scans of SN-38 lactone in the presence and absence of DNA were recorded.
Our results thus provide the first evidence that duplex DNA devoid of TopoI may play a functional role in the biological activities of the camptothecin drugs through the promotion of active lactone levels within the cell nucleus. […] The DNA-associated drugs are likely to be in their active lactone forms and ready for the subsequent drug-DNA-enzyme complex formation.

Data set [2] relates to RNA (total RNA from yeast). Description: Stability of topotecan lactone in the presence of RNA (reversed-phase HPLC). As to conditions: 1 μM topotecan. The format is physicochemical. As for the experimental part: FIG. 4 depicts the stability of topotecan in the presence of various concentrations of RNA at 22° C. In these experiments, topotecan (at a final concentration of 1 μM) was incubated in PBS, pH 7.4 in the presence of various concentrations of RNA (total RNA from yeast) for 30 min at 22° C. and analyzed for the fraction of lactone present by reversed-phase HPLC. […] As an example, in the presence of 7.5 mg/ml of RNA there exists a 10% greater amount of the lactone form than found in the absence of RNA.
FIG. 5. Stability of topotecan in the presence of various concentrations of RNA at 37° C. Topotecan (1 μM final concentration) was incubated in PBS, pH 7.4 in the presence of various concentrations of RNA (total RNA from yeast) for 30 min at 37° C. and analyzed for the fraction of lactone present by reversed-phase HPLC. At a RNA concentration of 7.5 mg/ml, 12% more of the lactone form of topotecan is present.
FIG. 6 represents a comparison of the stability of topotecan in the presence and absence of RNA at 22° C. Topotecan (1 μM final concentration) was incubated in PBS, pH 7.4 either alone (filled circles) or in the presence of 10 mg/ml of RNA (open circles) at 22° C. and analyzed for the fraction of lactone present at different times by reversed-phase HPLC.
FIG. 7 represents a comparison of the stability of topotecan in the presence and absence of RNA at 37° C. Topotecan (1 μM final concentration) was incubated in PBS, pH 7.4 either in the absence (filled circles) or in the presence of 10 mg/ml of RNA (open circles) at 37° C. and analyzed for the fraction of lactone present at different times by reversed-phase HPLC.

The subject of data set [3] is single-strand DNA (ssDNA) (dT)30. Description: Lactone stability in the presence of single-strand DNA (HPLC). It is filed as physicochemical. Conditions: ~33 mM base (dT)30; dsDNA 10- to 100-fold more dilute gives approximately equal stabilization. An excerpt:
Note how the presence of DNA markedly stabilizes the biologically-active form of the camptothecins drugs. […] . But it is clear from our work that camptothecin drugs can interact with ssDNA as well as RNA (see FIGS. 4 through 7) and these interactions stabilize the biologically-active lactone forms of these agents.

In data set [4] the test system is dsDNA oligonucleotide d(CGTACG). In words: NMR titration / 2D-NOESY of drug with d(CGTACG). As to conditions: drug:DNA ratios of 1:1, 2:1 and 3:1.
A short description of data set [5]: Lactone ring hydrolysis in PBS in the absence of DNA (reversed-phase HPLC). As to conditions: for % Lactose at Equilibrium: PBS buffer, pH 7.4, 10 uM drug; for percent lactone at equilibrium: absence of DNA, 10 μM, incubated 3 hours, PBS pH 7.4, room temperature.
For data set [6], the system named is duplex DNA oligonucleotides (dG-dC)15 or (dA-dT)15. Description: UV absorption spectra of drug lactone with duplex DNA oligonucleotides. As to conditions: for DNA sequence preference (UV and HPLC data): (dG-dC)15 versus (dA-dT)15; for UV spectral change in the presence of DNA: PBS pH 5, 10 μM drug, (dG-dC)15 16 mM base or (dA-dT)15 24 mM base.
Data set [7] concerns dsDNA oligonucleotide (dA-dT)15. In words: Lactone ring hydrolysis in PBS in the presence of (dA-dT)15 (reversed-phase HPLC). Conditions: for % Lactose at Equilibrium: pH 7.4, 10 uM drug; for Lactone levels following three hours of incubation: (dA-dT)15 ~30 mM base, PBS pH 7.4, room temperature.
The test system of another data set is dsDNA. Description: Relactonization of carboxylate forms in dsDNA solutions (HPLC). Conditions: ~30 mM base dsDNA in PBS, room temperature, after 30 hrs.
Data set [8] relates to dsDNA oligonucleotide (dG-dC)15. Description: Lactone ring hydrolysis in PBS in the presence of (dG-dC)15 (reversed-phase HPLC). As to conditions: for % Lactose at Equilibrium: pH 7.4, 10 uM drug; for Lactone levels following three hours of incubation: (dG-dC)15 ~30 mM base, PBS pH 7.4, room temperature.

With `CCc1c2c(nc3ccc(O)cc13)-c1cc3c(c(=O)n1C2)COC(=O)[C@]3(O)CC` [SN-38, 7-ethyl-10-hydroxycamptothecin], the “direct binding of lactone form to DNA (fluorescence spectral shift)” value in data set [1] was “binds the DNA”.
With `CC[C@@]1(O)C(=O)OCc2c1cc1n(c2=O)Cc2cc3c(CN(C)C)c(O)ccc3nc2-1` [TPT, topotecan], the “greater amount of the lactone form than in the absence of RNA” value in data set [2] (7.5 mg/ml RNA, PBS pH 7.4, 30 min, 22 °C) came out at 10%. The “more of the lactone form present than without RNA” value in data set [2] (7.5 mg/ml RNA, PBS pH 7.4, 30 min, 37 °C) was 12%; in [2] (10 mg/ml RNA, PBS pH 7.4, after 3 hrs, 22 °C), 25%; in data set [2] (10 mg/ml RNA, PBS pH 7.4, after 3 hrs, 37 °C) it was 15%. Besides, the “effect of ssDNA on lactone stabilization (versus dsDNA)” value in data set [3] is listed as “significantly diminished effects on stabilizing”. In addition, the “drug binding to DNA (2D-NOESY)” value in data set [4] is on record as “clearly consistent with drug binding to DNA”. The “% Lactose at Equilibrium” value in data set [5] (22 °C) is 15 ± 1%; in data set [5] (37 °C), 10 ± 1%; in data set [7] ((dA-dT)15, 22 °C) it was −50%; in data set [7] ((dA-dT)15, 37 °C), 19 ± 2%; in [8] ((dG-dC)15, 22 °C), −50%; in data set [8] ((dG-dC)15, 37 °C), 26 ± 2%. For the same compound, the “percent lactone at equilibrium” value in [5] was 12%. Besides, in data set [6], the “DNA sequence preference (UV and HPLC data)” value is “sequence preference of (dG-dC)15 over (dA-dT)15”. Besides, the “UV spectral change in the presence of DNA” value in data set [6] was “substantial hypochromic and red spectral shift”. Moreover, the “Lactone levels following three hours of incubation” value stood at 78% in data set [7] and 95% in data set [8]. In the data set on dsDNA, the “active lactone level after relactonization of pure carboxylate form” value was about 30%.
On to `CCc1c2c(nc3ccc(OC(=O)N4CCC(N5CCCCC5)CC4)cc13)-c1cc3c(c(=O)n1C2)COC(=O)[C@]3(O)CC` [CPT-11], for which the “effect of ssDNA on lactone stabilization (versus dsDNA)” value in [3] is on record as “significantly diminished effects on stabilizing”. Moreover, in data set [4], the “drug binding to DNA (2D-NOESY)” value was “clearly consistent with drug binding to DNA”. For the same compound, the “% Lactose at Equilibrium” value is recorded as 17 ± 1% in data set [5] (22 °C); 8 ± 2% in data set [5] (37 °C); −50% in data set [7] ((dA-dT)15, 22 °C); 29 ± 2% in data set [7] ((dA-dT)15, 37 °C); −50% in data set [8] ((dG-dC)15, 22 °C); 30 ± 2% in [8] ((dG-dC)15, 37 °C). For the same compound, in [5], the “percent lactone at equilibrium” value is recorded as 24%. Also, the “DNA sequence preference (UV and HPLC data)” value in data set [6] is reported as “no signs of any sequence preference”. Moreover, in data set [6], the “UV spectral change in the presence of DNA” value is “substantial hypochromic and red spectral shift”. The “Lactone levels following three hours of incubation” value in data set [7] and in data set [8] was 95% each time. The “active lactone level after relactonization of pure carboxylate form” value in the data set on dsDNA was about 30%.
As to `CC[C@@]1(O)C(=O)OCc2c1cc1n(c2=O)Cc2cc3ccccc3nc2-1` [camptothecin], in data set [8], the “Lactone levels following three hours of incubation” value was “above 80%”.
